Calls of active or inactive are those of the source.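 Rule for the calls: active = tumour findings in long-term animal cancer tests in more than one sex, species or organ; inactive = no tumour finding and more than one negative test.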
assay: DSSTox (CPDBAS) Carcinogenic Potency Database Summary MultiCellCall Results; conditions: animal carcinogenicity bioassays, multi-cell call summary
Method in brief: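 ActivityScore sums 50 for multispecies, 30 for multisex and 20 for multisite positivity. Based on the most positive experiment per sex-species across standardised chronic rodent and other animal cancer tests.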

| Structure (SMILES) | outcome |
| --- | --- |
| CC(O)CN(CC(C)O)N=O (stereo not drawn) | active; multisite active; multisex active |
| COC(=O)C(c1ccccc1)C1CCCCN1N=O (stereo not drawn) | inactive; multisex inactive |
| Cc1cc(-c2ccc(N)c(C)c2)ccc1N | active; multisite active; multisex active; multispecies active |
| CC(O)CN(C)c1ccc(NN)nn1 (stereo not drawn) | inactive; multisex inactive |
| COc1cccc2c1C(=O)c1c(O)c3c(c(O)c1C2=O)C[C@@](O)(C(=O)CO)C[C@@H]3O[C@H]1C[C@H](N)[C@H](O)[C@H](C)O1 | inactive; multispecies inactive |
| Nc1c(Cl)cc([N+](=O)[O-])cc1Cl | inactive; multisex inactive |
| CCCCCCCCCCCCCCN(C)N=O | active; multisite active |
| O=C(O)c1ccncc1 | inactive; multisex inactive; multispecies inactive |
| FC(F)(Cl)Cl | inactive; multisex inactive; multispecies inactive |
| OCC1CO1 (stereo not drawn) | active; multisite active; multisex active; multispecies active |
| CCC(=O)C(CC(C)N(C)C)(c1ccccc1)c1ccccc1 (stereo not drawn) | inactive; multisex inactive; multispecies inactive |
| COc1cc(-c2ccc(N=Nc3c(S(=O)(=O)O)cc4cc(S(=O)(=O)O)cc(N)c4c3O)c(OC)c2)ccc1N=Nc1c(S(=O)(=O)O)cc2cc(S(=O)(=O)O)cc(N)c2c1O | active; multisite active; multisex active |
| Oc1ccc(Cl)cc1Cl | inactive; multisex inactive; multispecies inactive |
| CC(C)NCC(O)COc1cccc2ccccc12 (stereo not drawn) | inactive; multisex inactive; multispecies inactive |
| CN(C)c1ccc(C(=N)c2ccc(N(C)C)cc2)cc1 | active; multisex active; multispecies active |
| C[C@@H]1Cc2c(Cl)cc(C(=O)N[C@@H](Cc3ccccc3)C(=O)O)c(O)c2C(=O)O1 | active; multisite active; multisex active; multispecies active |
| c1ccc(Nc2ccc3ccccc3c2)cc1 | inactive; multisex inactive; multispecies inactive |
| NC(=O)/C(=C\c1ccc([N+](=O)[O-])o1)c1ccco1 | active; multisite active; multisex active; multispecies active |
| NC(=O)c1ccccc1C(N)=O | inactive; multisex inactive; multispecies inactive |
| Brc1cc(Br)c2cccnc2c1 | inactive; multisex inactive |
| Cc1c(N)cccc1N | inactive; multisex inactive; multispecies inactive |
| Cc1c(-c2cnccn2)ssc1=S | inactive; multisex inactive |
| CCCN(CCC)N=O | active; multisite active; multispecies active |
| Nc1ccc2c(n1)[nH]c1ccccc12 | active; multisite active; multisex active |
| O=NN1C[C@H](O)C[C@H]1C(=O)O | inactive; multisex inactive |

| Structure (SMILES) | outcome |
| --- | --- |
| Nc1ccc2oc3ccccc3c2c1 | active; multisite active; multisex active |
| O=NN1CCOC1 | active; multisite active; multisex active |
| COc1c(Cl)c(Cl)c(Cl)c(Cl)c1Cl | active; multisite active; multispecies active |
| Clc1cc2c(c(Cl)c1Cl)Oc1c(cc(Cl)c(Cl)c1Cl)O2 | active; multisex active; multispecies active |
| O=S(=O)(c1ccc(Cl)cc1)c1ccc(Cl)cc1 | inactive; multisex inactive; multispecies inactive |
| Oc1ccc(OCc2ccccc2)cc1 | inactive; multisex inactive |
| CC(=O)OCc1ccccc1 | active; multisite active; multisex active |
| O=[N+]([O-])c1ccc2ncccc2c1 | inactive; multisex inactive |
| CN(C)NC(=O)CCC(=O)O | active; multisite active; multisex active; multispecies active |
| Nc1ncn([C@@H]2O[C@H](CO)[C@@H](O)[C@H]2O)c(=O)n1 | active; multisite active; multisex active; multispecies active |
| OCN(CO)c1nc(N(CO)CO)nc(N(CO)CO)n1 | active; multisite active |
| C=CC(=O)O | inactive; multisex inactive |
| Cc1ccc2c(c1N)C(=O)c1ccccc1C2=O | active; multisite active; multisex active; multispecies active |
| FCCl | active; multisex active |
| CCC(Cl)CCC(Cl)C(Cl)CC(Cl)C(Cl)C(Cl)CCl (stereo not drawn) | active; multisite active; multisex active; multispecies active |
| O=C1NCCN1 | inactive; multisex inactive |
| CN(C)C(=O)Nc1cccc(C(F)(F)F)c1 | inactive; multisex inactive; multispecies inactive |
| CC1=NN(c2ccccc2)C(=O)C1 | inactive; multisex inactive; multispecies inactive |
| CCCCC(CC)COC(=O)COc1ccc(Cl)cc1Cl (stereo not drawn) | inactive; multisex inactive |
| Nc1ccc(-c2ccc(N)c(Cl)c2)cc1Cl | active; multisite active; multisex active; multispecies active |
| CCOC(=O)N(CC)N=O | active; multisite active |
| CCCCCNN | active; multisite active |
| O=S(=O)(O)c1c(N=Nc2c(O)ccc3ccccc23)ccc2ccccc12 | inactive; multisex inactive |
| O[C@H]([C@H](O)[C@@H](O)CBr)[C@H](O)CBr | active; multisite active; multisex active; multispecies active |
| CC(=O)NNc1ccccc1 | active; multisex active |

| Structure (SMILES) | outcome |
| --- | --- |
| CCCN(CCC)c1c([N+](=O)[O-])cc(C(F)(F)F)cc1[N+](=O)[O-] | active; multisite active |
| ClC(Cl)C(Cl)(Cl)Cl | active; multisex active |
| O=C([O-])C(=O)O.O=C([O-])C(=O)O.[K+].[K+].[O]=[Ti] | inactive; multisex inactive |
| COP(=S)(OC)SCn1nnc2ccccc2c1=O | inactive; multisex inactive; multispecies inactive |
| Nc1ccc(Cl)c(N)c1 | active; multisite active; multisex active; multispecies active |
| COc1ccc(OC)c(/C=C/c2ccc(N)cc2)c1 | active; multisite active; multispecies active |
| COC(=O)c1ccc(C(=O)OC)cc1 | inactive; multisex inactive; multispecies inactive |
| CCNC(=O)N(CCN(C)C)N=O | active; multisite active |
| N=C1C=CC(=C(c2ccc(N)cc2)c2ccc(N)cc2)C=C1 | active; multisite active; multisex active; multispecies active |
| ClC1=C(Cl)C(Cl)(Cl)C(Cl)=C1Cl | inactive; multisex inactive; multispecies inactive |
| c1cc(OCC2CO2)cc(OCC2CO2)c1 (stereo not drawn) | active; multisex active; multispecies active |
| Oc1cccc2cccnc12.Oc1cccc2cccnc12.[Cu] | inactive; multisex inactive |
| NC(=O)N(CCc1ccccc1)N=O | active; multisite active; multisex active |
| COC(C)(C)C | active; multisite active; multisex active; multispecies active |
| C[N+](=O)[O-] | active; multisite active; multisex active; multispecies active |
| O=[N+]([O-])c1cccc2cccnc12 | active; multisex active |
| [O]=[Mo](=[O])=[O] | active; multisex active |
| O=[N+]([O-])c1cc(N(CCO)CCO)ccc1NCCO | inactive; multisex inactive; multispecies inactive |
| CC(C)(C)O | active; multisite active; multisex active; multispecies active |
| C=CC | inactive; multisex inactive; multispecies inactive |
| O=[N+]([O-])c1cccc2ccccc12 | inactive; multisex inactive; multispecies inactive |
| Cc1cc(O)cc(C)c1N(C)C | inactive; multisex inactive |
| Cc1cc(Cl)ccc1N | active; multisex active |
| O=P(O)(O)O | inactive; multisex inactive |
| C=C(C)[C@H]1Cc2c(ccc3c2O[C@@H]2COc4cc(OC)c(OC)cc4[C@@H]2C3=O)O1 | inactive; multisex inactive; multispecies inactive |

| Structure (SMILES) | outcome |
| --- | --- |
| O=C1NS(=O)(=O)c2ccccc21 | inactive; multisex inactive; multispecies inactive |
| CN=[N+](C)[O-] | active; multisite active |
| CN(C)Nc1nc(-c2ccc([N+](=O)[O-])o2)cs1 | active; multisite active |
| CC(=O)C(N=Nc1ccc(Cl)cc1Cl)C(=O)Nc1ccc(-c2ccc(NC(=O)C(N=Nc3ccc(Cl)cc3Cl)C(C)=O)c(C)c2)cc1C (stereo not drawn) | inactive; multispecies inactive |
| CC1CN(N=O)CC(C)O1 (stereo not drawn) | active; multisite active; multisex active |
| C=O | active; multisite active; multisex active; multispecies active |
| CCOC(N)=O | active; multisite active; multisex active; multispecies active |
| CC(=O)Nc1nc(-c2ccc([N+](=O)[O-])o2)cs1 | active; multisite active; multisex active; multispecies active |
| O=C(O)c1nn(Cc2ccc(Cl)cc2Cl)c2ccccc12 | inactive; multisex inactive |
| CC1=C(C(=O)OC(C)C)C(c2cccc([N+](=O)[O-])c2)C(C(=O)OC2CN(C(c3ccccc3)c3ccccc3)C2)=C(N)N1 (stereo not drawn) | inactive; multisex inactive; multispecies inactive |
| COc1c(Cl)c(Cl)c([N+](=O)[O-])c(Cl)c1Cl | inactive; multisex inactive; multispecies inactive |
| O=C(O)[C@@H]1[C@H](C(=O)O)[C@@]2(Cl)C(Cl)=C(Cl)[C@]1(Cl)C2(Cl)Cl | active; multisite active; multisex active; multispecies active |
| CC(CN1CC(=O)NC(=O)C1)N1CC(=O)NC(=O)C1 (stereo not drawn) | active; multisite active; multispecies active |
| C[C@@H]1O[C@@]2(CS1)CN1CCC2CC1 | inactive; multisex inactive |
| COc1ccc(N)c(OC)c1 | inactive; multisex inactive; multispecies inactive |
| O=Cc1ccccc1 | active; multisex active |
| Cn1cc(C(=O)[C@@H]2CCc3nc[nH]c3C2)c2ccccc21 | inactive; multisex inactive; multispecies inactive |
| Oc1ccc2ccccc2c1N=Nc1ccccc1 | active; multisex active |
| CC(C)C(C(=O)OC(C#N)c1cccc(Oc2ccccc2)c1)c1ccc(Cl)cc1 (stereo not drawn) | inactive; multisex inactive; multispecies inactive |
| NNC(=O)c1cccnc1 | active; multisex active |
| CC(C(O)c1ccccc1)N(C)N=O (stereo not drawn) | active; multisite active |
| NC(=O)CCCCC(N)=O | inactive; multisex inactive; multispecies inactive |
| Cc1c([N+](=O)[O-])c(C)c([N+](=O)[O-])c(C(C)(C)C)c1[N+](=O)[O-] | active; multisite active; multisex active |

Source: PubChem BioAssay AID1205 (EPA DSSTox, 2008)
